Legend:
[1] = Anti-solvent crystallization, solid form by HT-XRPD of precipitates and evaporated mother liquors, before and after AAC; type: physicochemical
Method: For the anti-solvent crystallization experiments, clear solutions of CBD of approximately 60 mg/mL were prepared. Briefly, 1 volume of cannabidiol solution was added to 4 volumes of anti-solvent. If solids were precipitated, they were collected by centrifugation. The solid was analyzed by XRPD after being dried under ambient conditions and following drying under deep vacuum. The mother liquors were allowed to evaporate until completely dry and the remaining solids analyzed as well. All solids were analyzed by XRPD before and after exposure to accelerated aging conditions (40° C./75% RH) for two days.
Solids precipitated immediately from the combination of methanol with water. To facilitate precipitation, the samples were placed at 5° C. for 24 hours. […] When no XRPD record was generated, the field is defined as “Not Applicable” (N/A).

[2] = Stability studies of CBD prepared via Protocol 3 (crude, pure, 2x recrystallized; 5° C., 25° C./60% RH, 40° C./75% RH); type: physicochemical
[3] = solvent 1,2-Dimethoxyethane, anti-solvent Decane
[4] = solvent Acetone, anti-solvent 2,2,4-Trimethylepentane
[5] = solvent Acetonitrile, anti-solvent Decane
[6] = solvent Ethanol, anti-solvent Decane
[7] = solvent Ethyl acetate, anti-solvent 2,2,4-Trimethylepentane
[8] = solvent Isopropyl acetate, anti-solvent 2,2,4-Trimethylepentane
[9] = solvent Toluene, anti-solvent Decane

C=C(C)[C@@H]1CCC(C)=C[C@H]1c1c(O)cc(CCCCC)cc1O [CBD, (1′R,2′R)-5′-methyl-4-pentyl-2′-(prop-1-en-2-yl)-1′,2′,3′,4′-tetrahydro-[1,1′-biphenyl]-2,6-diol]
Oily: Form (evap. ML) [1, 3] | Form (evap. ML) [1, 4] | Form (evap. ML) [1, 5] | Form (evap. ML) [1, 6] | Form (evap. ML) [1, 8] | Form (evap. ML) [1, 9]
No: AS:S ratio 4:1 Precipitation? [1, 3] | AS:S ratio 4:1 Precipitation? ([1]; solvent 1,2-Dimethoxyethane, anti-solvent Water) | AS:S ratio 4:1 Precipitation? ([1]; solvent 1,4-Dioxane, anti-solvent 2,2,4-Trimethylepentane) | AS:S ratio 4:1 Precipitation? ([1]; solvent 1,4-Dioxane, anti-solvent Water) | AS:S ratio 4:1 Precipitation? ([1]; solvent 2-Butanone, anti-solvent Water) | AS:S ratio 4:1 Precipitation? [1, 4] | AS:S ratio 4:1 Precipitation? [1, 5] | AS:S ratio 4:1 Precipitation? ([1]; solvent Dichloromethane, anti-solvent 2,2,4-Trimethylepentane) | AS:S ratio 4:1 Precipitation? [1, 6] | AS:S ratio 4:1 Precipitation? [1, 7] | AS:S ratio 4:1 Precipitation? [1, 8] | AS:S ratio 4:1 Precipitation? ([1]; solvent Tetrahydrofuran, anti-solvent Decane) | AS:S ratio 4:1 Precipitation? ([1]; solvent Tetrahydrofuran, anti-solvent Water) | AS:S ratio 4:1 Precipitation? [1, 9]
Yes: AS:S ratio 4:1 Precipitation? ([1]; solvent Methanol, anti-solvent Water)
A low yield: Solid form by HT-XRPD Ambient After AAC ([1]; Dichloromethane / 2,2,4-Trimethylepentane, AS:S ratio 4:1)
not hygroscopic: Hygroscopicity [2]
A low: Form (evap. ML) [1, 7] | Form (evap. ML) after AAC [1, 7]

Reference: patent US12144795B2, “Cannabidiol compositions having modified cannabinoid profiles” (priority 2018, dated 2024)
